Measured values reported in PubChem BioAssay AID330 (DTP/NCI, 2004).
Where “and” joins values, the source holds several entries; their conditions need not be identical. Equal values may be shown once. Toxic doses and inconclusive results are not listed. Rule for the calls: active = survival T/C of 150% or more; inactive = T/C below 125% in these data.

Test system: P388 leukemia ip, CD2F1 mice, survival T/C
Assay: NCI In Vivo Anticancer Drug Screen. Data for tumor model P388 Leukemia (intraperitoneal) in CD2F1 (CDF1) mice
Conditions: endpoint: median survival time, higher = longer survival
Summary of the method: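 Mice carrying the transplanted tumor received test compound or vehicle. Survival was recorded in each group, and the value is the treated-group measurement divided by that of the vehicle-treated control group.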

[1] = dose: 100.0 mg/kg/injection, schedule: Q04DX003 (ip), vehicle: water
[2] = dose: 200.0 mg/kg/injection, schedule: Q04DX003 (ip), vehicle: water
[3] = dose: 400.0 mg/kg/injection, schedule: Q04DX003 (ip), vehicle: water
[4] = dose: 50.0 mg/kg/injection, schedule: Q01DX009 (ip), vehicle: saline with Tween-80
[5] = dose: 100.0 mg/kg/injection, schedule: Q01DX009 (ip), vehicle: saline with Tween-80
[6] = dose: 200.0 mg/kg/injection, schedule: Q01DX009 (ip), vehicle: saline with Tween-80
[7] = dose: 50.0 mg/kg/injection, schedule: Q01DX005 (ip), vehicle: saline with Tween-80
[8] = dose: 100.0 mg/kg/injection, schedule: Q01DX005 (ip), vehicle: saline with Tween-80
[9] = dose: 100.0 mg/kg/injection, schedule: Q01DX001 (ip), vehicle: saline with Tween-80
[10] = dose: 200.0 mg/kg/injection, schedule: Q01DX001 (ip), vehicle: saline with Tween-80
[11] = dose: 50.0 mg/kg/injection, schedule: Q01DX005 (ip), vehicle: saline
[12] = dose: 100.0 mg/kg/injection, schedule: Q01DX005 (ip), vehicle: saline
[13] = dose: 200.0 mg/kg/injection, schedule: Q01DX005 (ip), vehicle: saline
[14] = dose: 60.0 mg/kg/injection, schedule: Q01DX005 (ip), vehicle: saline with Tween-80
[15] = dose: 100.0 mg/kg/injection, schedule: Q04DX002 (ip), vehicle: saline with Tween-80
[16] = dose: 200.0 mg/kg/injection, schedule: Q04DX002 (ip), vehicle: saline with Tween-80

Measured: T/C

O=C(NO)C1NC1C(=O)NO (stereo not drawn)
inactive: dose: 25.0 mg/kg/injection, schedule: Q01DX009 (ip), vehicle: water 96 % of control | dose: 50.0 mg/kg/injection, schedule: Q01DX009 (ip), vehicle: water 109 % of control | dose: 100.0 mg/kg/injection, schedule: Q01DX001 (ip), vehicle: water 100 % of control | dose: 100.0 mg/kg/injection, schedule: Q01DX009 (ip), vehicle: water 111 % of control | [1] 115 % of control | dose: 200.0 mg/kg/injection, schedule: Q01DX001 (ip), vehicle: water 107 % of control | [2] 112 % of control | dose: 400.0 mg/kg/injection, schedule: Q01DX001 (ip), vehicle: water 100 % of control | [3] 112 % of control | dose: 600.0 mg/kg/injection, schedule: Q01DX001 (ip), vehicle: water 101 % of control

COc1cc(OC)c(/C=C\c2ccnc3ccccc23)c(OC)c1
inactive: [4] 97 % of control | [5] 90 % of control | [6] 104 % of control

Cl/C(=C\c1ccccc1)c1nc2ccccc2nc1Cl
inactive: dose: 50.0 mg/kg/injection, schedule: Q01DX009 (ip), vehicle: Klucel (hydroxypropylcellulose) (HPC) 96 % of control | dose: 100.0 mg/kg/injection, schedule: Q01DX009 (ip), vehicle: Klucel (hydroxypropylcellulose) (HPC) 89 % of control | dose: 200.0 mg/kg/injection, schedule: Q01DX009 (ip), vehicle: Klucel (hydroxypropylcellulose) (HPC) 92 % of control

O=C(Nc1cccc(Cl)c1Cl)SCCSC(=O)Nc1cccc(Cl)c1Cl
inactive: dose: 50.0 mg/kg/injection, schedule: Q01DX009 (ip), vehicle: gum acacia 92 % of control | dose: 100.0 mg/kg/injection, schedule: Q01DX009 (ip), vehicle: gum acacia 100 % of control | dose: 200.0 mg/kg/injection, schedule: Q01DX009 (ip), vehicle: gum acacia 96 % of control

Cc1ccccc1N=C(CCl)Nc1ccccc1C
inactive: [7] 94 % of control | [8] 99 % of control

CC(C)S(=O)c1ccccc1 (stereo not drawn)
inactive: dose: 50.0 mg/kg/injection, schedule: Q01DX001 (ip), vehicle: saline with Tween-80 103 % of control | [9] 95 % of control | [10] 95 % of control

O=C(O)c1c(Cl)c(Cl)c(Cl)c(Cl)c1C(=O)OCC1CCCO1 (stereo not drawn)
inactive: [4] 90 % of control | [5] 106 % of control | [6] 101 % of control

CN(C)CCCNC(=O)c1nn(-c2ccccc2)c2c1N(C)S(=O)(=O)c1ccccc1-2
inactive: [11] 92 % of control | [12] 99 % of control | [13] 101 % of control

CC1NNC(=O)C1(Br)Br (stereo not drawn)
inactive: dose: 6.25 mg/kg/injection, schedule: Q01DX009 (ip), vehicle: gum acacia 100 % of control | dose: 12.5 mg/kg/injection, schedule: Q01DX009 (ip), vehicle: gum acacia 91 % of control

CC(C)CC(=O)Cc1nc2n(c1O)C(=N)N=N2
inactive: dose: 60.0 mg/kg/injection, schedule: Q01DX005 (ip), vehicle: saline 105 % of control | dose: 120.0 mg/kg/injection, schedule: Q01DX005 (ip), vehicle: saline 98 % of control | dose: 240.0 mg/kg/injection, schedule: Q01DX005 (ip), vehicle: saline 110 % of control

CSC(C(O)C(O)C(O)C(O)CO)n1cnc2c(=S)nc[nH]c21 (stereo not drawn)
inactive: [7] 99 % of control | [8] 96 % of control | dose: 200.0 mg/kg/injection, schedule: Q01DX005 (ip), vehicle: saline with Tween-80 99 % of control

O=C(O)c1cccc([N+](=O)[O-])c1C(=O)O
inactive: dose: 25.0 mg/kg/injection, schedule: Q04DX003 (ip), vehicle: saline with Tween-80 103 % of control | dose: 50.0 mg/kg/injection, schedule: Q04DX003 (ip), vehicle: saline with Tween-80 108 % of control | dose: 100.0 mg/kg/injection, schedule: Q04DX003 (ip), vehicle: saline with Tween-80 103 % of control | dose: 200.0 mg/kg/injection, schedule: Q04DX003 (ip), vehicle: saline with Tween-80 94 % of control

COC(=O)C(N)Cc1cn(Cc2ccccc2)cn1 (stereo not drawn)
inactive: [4] 95 % of control | [5] 96 % of control | [6] 96 % of control

CC(O)CN=Cc1ccccc1[O-].CC(O)CN=Cc1ccccc1[O-].[Cu+2] (stereo not drawn)
inactive: dose: 15.0 mg/kg/injection, schedule: Q01DX005 (ip), vehicle: saline with Tween-80 95 % of control | dose: 30.0 mg/kg/injection, schedule: Q01DX005 (ip), vehicle: saline with Tween-80 94 % of control | [14] 101 % of control and 89 % of control

CC(=O)OCC(OC(C)=O)C(Cl)CCl (stereo not drawn)
inactive: [11] 103 % of control | [12] 101 % of control | [13] 107 % of control

CCOCCOCCOC(C)Oc1ccc(Br)cc1 (stereo not drawn)
inactive: [14] 104 % of control | dose: 120.0 mg/kg/injection, schedule: Q01DX005 (ip), vehicle: saline with Tween-80 100 % of control | dose: 240.0 mg/kg/injection, schedule: Q01DX005 (ip), vehicle: saline with Tween-80 104 % of control

N#Cc1c(-c2ccccc2)sc2ccccc2c1=O
inactive: [9] 99 % of control | [10] 93 % of control | dose: 400.0 mg/kg/injection, schedule: Q01DX001 (ip), vehicle: saline with Tween-80 98 % of control

O=C1Nc2ccccc2SC1c1ccccc1Cl (stereo not drawn)
inactive: dose: 6.25 mg/kg/injection, schedule: Q01DX009 (ip), vehicle: saline 96 % of control | dose: 12.5 mg/kg/injection, schedule: Q01DX009 (ip), vehicle: saline 99 % of control | dose: 25.0 mg/kg/injection, schedule: Q01DX009 (ip), vehicle: saline 105 % of control | dose: 50.0 mg/kg/injection, schedule: Q01DX009 (ip), vehicle: saline 106 % of control and 93 % of control | dose: 100.0 mg/kg/injection, schedule: Q01DX009 (ip), vehicle: saline 102 % of control | dose: 200.0 mg/kg/injection, schedule: Q01DX009 (ip), vehicle: saline 105 % of control | dose: 400.0 mg/kg/injection, schedule: Q01DX009 (ip), vehicle: saline 113 % of control

CC(=O)Nc1cc(Cl)c2ncn(C3OC(CO)C(O)C3O)c2n1 (stereo not drawn)
inactive: dose: 25.0 mg/kg/injection, schedule: Q04DX003 (ip), vehicle: water 111 % of control | dose: 50.0 mg/kg/injection, schedule: Q04DX003 (ip), vehicle: water 112 % of control | [1] 109 % of control | [2] 100 % of control | [3] 100 % of control

COC(=O)c1nnc2n1-c1ccc(Cl)cc1C(c1ccccc1)=[N+]([O-])C2
inactive: dose: 50.0 mg/kg/injection, schedule: Q04DX002 (ip), vehicle: saline with Tween-80 96 % of control | [15] 104 % of control | [16] 99 % of control

Cc1c2c(cc3c4ccccc4n(C)c13)C(=O)c1ccccc1C2=O
inactive: [15] 90 % of control | [16] 87 % of control | dose: 400.0 mg/kg/injection, schedule: Q04DX002 (ip), vehicle: saline with Tween-80 92 % of control

C=CCSC(=NC#N)SC
inactive: dose: 3.12 mg/kg/injection, schedule: Q01DX005 (ip), vehicle: Klucel (hydroxypropylcellulose) (HPC) 101 % of control | dose: 6.25 mg/kg/injection, schedule: Q01DX005 (ip), vehicle: Klucel (hydroxypropylcellulose) (HPC) 101 % of control | dose: 12.5 mg/kg/injection, schedule: Q01DX005 (ip), vehicle: Klucel (hydroxypropylcellulose) (HPC) 107 % of control
